The results in this text go back to ChEMBL document CHEMBL3286379, “Design and synthesis of pyrimidine molecules endowed with thiazolidin-4-one as new anticancer agents” (Eur J Med Chem, 2014).

SMILES strings stand for the structures.

In series [1] the test system is Rattus norvegicus. Put plainly: Hepatotoxicity in rat assessed as SGPT level at 0.12 mg/kg, po after 12 days (reference value: 31.17 +/- 0.39 U/mL). The format is toxicity, organism-based. Also noted: dose 0.12 mg/kg, route oral. Particulars: in vivo, 288 h.
The test system of series [2] is Rattus norvegicus. Put plainly: Hepatotoxicity in rat assessed as SGOT level at 0.12 mg/kg, po after 12 days (reference value: 140.23 +/- 1.39 U/mL). The format is toxicity, organism-based. More on the design: dose 0.12 mg/kg, route oral. Particulars: in vivo, 288 h.

For the molecule `O=c1[nH]cc(F)c(=O)[nH]1` [FLUOROURACIL], the Activity in series [1] is 32.75 U/ml; in series [2] it was 151.21 U/ml.
